The source of these data is US20060229433A1, “Modified antiviral peptides with increased activity and cell membrane affinity” (priority 2003, published 2006).

The IC50 is the point on the concentration scale where inhibition reaches its midpoint.

Bridge positions count the residues as written; N and C are the ends. Square brackets hold non-standard residues; d marks the D form. Ends that are not written are not given here. Peptide text beside a SMILES is read from it. I, II: the chains in the order shown. Ava = NCCCCC(=O)O; βAla = NCCC(=O)O

Test in all cases: HIV-1 infection of C8166 cells (syncytia formation, p24 ELISA) with HIV-1 NL 4-3
Holding throughout (assay type): cell-based
(In an ELISA, binding on a coated surface is turned into a signal by an enzyme label.)

Assay [1] deals with HIV-1 NL 4-3. Set-up: key: ++, +, (+), (+)− and − represent decreasing numbers of syncitia formed.; ++, +, (+), (+)− and − represent decreasing numbers of syncitia formed.; ++, +, (+), (+)− and − represent decreasing numbers of syncitia formed.; ++, +, (+), (+)− and − represent decreasing numbers of syncitia formed.; ++, +, (+), (+)− and − represent decreasing numbers of syncitia formed. The settings on record: Table 2. The procedure:
(§1) HIV-1 NL 4-3 isolate (Adachi et al., 1986; Barré-Sinoussi et al., 1983) and highly cytopathic Zairian HIV-1 NDK isolate (Ellrodt et al., 1984) was propagated in permissive CEM cells (Nara et al., 1987). Uninfected CEM and C8166 (Salahuddin et al., 1983) were maintained in RPMI 1640 (R10) with ultraglutamine (cambrex, Vervier, Belgium), penicillin (100 U/ml), streptomycin (100 μg/ml), and 10% heat-inactivated fetal calf serum (Cambrex).
(§2) Samples of 3×10^5/100 μL C8166 cells were preincubated in 96-well microtiter plates in culture medium containing various concentrations of peptide. After a 1 h treatment at 37° C., 100 μl of diluted viral solution of HIV-1 was added. The cells were exposed to the virus for 1 h at 37° C. at a multiplicity of infection of 1000 TCID50 per ml. The cells were washed three times and cultured at 3×10^5/ml of R10 with the treatment in 24-well plates incubated at 37° C. C8166 culture medium was replaced at Day-4 post-infection. The treatment was permanent before virus adsorption, during virus adsorption and after infection. Assays on C8166 cells have been performed at least twice and in duplicate. Toxicity was evaluated by daily cell count and trypan-blue exclusion assay. Infection of C8166 T-cells with HIV-1 was assessed by virus-induced cytopathic effects (syncytia formation) and by quantification of cell free p24 viral protein in the culture supernatants. Measurements of HIV-1 p24^gag concentration in the culture supernatants were achieved by ELISA (ALLIANCE® HIV-1 p24 kit, Perkin Elmer, life sciences, USA).

Assay [2] deals with HIV-1 NL 4-3. Also noted: key: ++, +, (+), (+)− and − represent decreasing numbers of syncitia formed; ++, +, (+), (+)− and − represent decreasing numbers of syncitia formed; ++, +, (+), (+)− and − represent decreasing numbers of syncitia formed; ++, +, (+), (+)− and − represent decreasing numbers of syncitia formed; ++, +, (+), (+)− and − represent decreasing numbers of syncitia formed. The settings on record: 1 μM; Table 1. The procedure: as §1, §2

Assay [3] has as its system HIV-1 NL 4-3. Particulars: for IC50: C8166 cells, HIV-1 subtype B NL 4-3, Table 3. The procedure: as §1, §2

Consider `Cc1cn([C@H]2C[C@H](N=[N+]=[N-])[C@@H](CO)O2)c(=O)[nH]c1=O` [AZT, reference compound], for which the “Day 4 syncitia formed” value in assay [1] (1 μM) and in assay [2] was “−” in each case. Moreover, the “Day 5 syncitia formed” value in assay [1] (1 μM) and in assay [2] was “−” throughout. Further, the “Day 6 syncitia formed” value in assay [1] (1 μM) and in assay [2] was “−” in each case. Moreover, the “Day 7 syncitia formed” value in assay [1] (1 μM) and in assay [2] was “−” each time. Besides, the “P 24” value is reported as “NEG” in assay [3] (Day 4, 1 μM, Table 1); “NEG” in assay [3] (Day 4, 1 μM, Table 2); “NEG” in assay [3] (Day 7, 1 μM, Table 1).
In assay [3], `N=C(N)NCCC[C@H](N)C(=O)N[C@@H](CCC(N)=O)C(=O)NCC(=O)N[C@@H](Cc1ccc(O)cc1)C(=O)N[C@@H](CO)C(=O)NCCCC[C@H](NC(=O)[C@H](CO)NC(=O)[C@H](Cc1ccc(O)cc1)NC(=O)CNC(=O)[C@H](CCC(N)=O)NC(=O)[C@@H](N)CCCNC(=N)N)C(=O)NCCCCC(=O)O` [RS dimer valeric acid, (RQGYS)2-K—NHCH2CH2CH2CH2COOH] (I: H-RQGYSK[Ava]-OH / II: H-RQGYS; amide I:6-II:C) yielded an IC50 of 50 nM.
On to `N=C(N)NCCC[C@H](N)C(=O)N[C@@H](CCC(N)=O)C(=O)NCC(=O)N[C@@H](Cc1ccc(O)cc1)C(=O)N[C@@H](CO)C(=O)NCCCCC(=O)O` [RS monomer valeric acid, RQGYS-NHCH2CH2CH2CH2COOH] (H-RQGYS[Ava]-OH), for which the IC50 in assay [3] amounted to 200 nM.
In the case of `N=C(N)NCCC[C@H](N)C(=O)N[C@@H](CCC(N)=O)C(=O)NCC(=O)N[C@@H](Cc1ccc(O)cc1)C(=O)N[C@@H](CO)C(=O)NCCCC[C@H](NC(=O)[C@H](CO)NC(=O)[C@H](Cc1ccc(O)cc1)NC(=O)CNC(=O)[C@H](CCC(N)=O)NC(=O)[C@@H](N)CCCNC(=N)N)C(=O)NCCC(=O)O` [RS, (RQGYS)2-K-βA-OH, reference compound] (I: H-RQGYSK[βAla]-OH / II: H-RQGYS; amide I:6-II:C; N-terminus assumed), in assay [3], inhibition was half-maximal at 100 nM (IC50).
Consider “GPGRAF [SPC3 monomer, GPGRAF, reference compound]”, for which the half-inhibitory concentration (IC50) in assay [3] was > 10000 nM.
As to “RQGYSPL [RL monomer, RQGYSPL, reference compound]”, the IC50 in assay [3] came out at 500 nM.
On to SPC3-Kpam [S7], for which, in assay [1] (1 μM), the “Day 4 syncitia formed” value is given as “(+)”, the “Day 5 syncitia formed” value was “+”, the “Day 6 syncitia formed” value is listed as “++” and the “Day 7 syncitia formed” value was “++”. In addition, in assay [1] (5 μM), the “Day 4 syncitia formed” value is on record as “−”; the “Day 5 syncitia formed” value is listed as “−”; the “Day 6 syncitia formed” value was “− and +”; the “Day 7 syncitia formed” value was “+ and ++”. Further, the “P 24” value in assay [3] (Day 4, 5 μM, Table 2) is recorded as “NEG”.
